The assay has as its target T1, HDM2 (Homo sapiens, UniProt Q00987).
T1 construct: Thioredoxin (N); made in house; host or cells: E. coli strain BL21(DE3)Rosetta
Put plainly: HDM2 FRET assay (inhibition of binding of FITC labeled p53-pocket peptide to HDM2). The note with it: for IC50: read-out: FRET IC50. The method, boiled down: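 Displacement of FITC-p53 peptide (3 nM) from His-tagged HDM2 (0.5 nM) is measured by Tb-to-fluorescein FRET in PBS, 0.01% BSA, 0.01% Tween-20. IC50 values derive from 10-point curves.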

The mark [1] stands for this setting: 0.5 nM HDM2 (residues 17 to 125), 3nM peptide, two hour incubation at room temperature.

The structures appear in SMILES notation. Read-outs that look alike come from different tables or passages of the source.

T1 sequence (Q00987 17-125): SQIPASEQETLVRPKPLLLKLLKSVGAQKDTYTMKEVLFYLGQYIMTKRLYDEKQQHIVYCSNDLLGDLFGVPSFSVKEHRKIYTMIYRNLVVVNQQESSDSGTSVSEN

The IC50 is the concentration needed to halve the response being measured. Consider `CC(C)CN(C)C(C)c1nc2nc(C(=O)O)nc(N[C@H](C)C3CCC3)c2n1Cc1ccc(C(F)(F)F)cc1` (stereo partly drawn) [Example 10.9, 6-(((R)-1-cyclobutylethyl)amino)-8-(1-(isobutyl(methyl)amino)ethyl)-7-(4-(trifluoromethyl)benzyl)-7H-purine-2-carboxylic acid], for which, for the setting “Table 10”, the IC50 stood at 21.2 nM.

For the compound `C[C@@H](Nc1nc(C(=O)O)nc2nc(CC(C)(C)C)n(C[C@H]3CC[C@H](C)CC3)c12)C1CCC1` [Example 20.6, 6-{[(1R)-1-cyclobutylethyl]amino}-8-(2,2-dimethylpropyl)-7-[(trans-4-methylcyclohexyl)methyl]-7H-purine-2-carboxylic acid], the IC50 (Table 20) came out at 13.9 nM.

As for `CC1CCCCN1c1nc2nc(-c3noc(=O)[nH]3)nc(N[C@H](C)C3CCC3)c2n1C[C@H]1CC[C@H](C)CC1` (stereo partly drawn) [Example 11.47, 3-[6-{[(1R)-1-cyclobutylethyl]amino}-7-[(trans-4-methylcyclohexyl)methyl]-8-(2-methylpiperidin-1-yl)-7H-purin-2-yl]-1,2,4-oxadiazol-5(4H)-one], the IC50 (Table 11) is 7.27 nM.

As for `CN(Cc1ccccc1)c1nc2nc(-c3n[nH]c(=O)o3)nc(-c3cccc(Cl)c3)c2n1C[C@H]1CC[C@H](C)CC1` [Example 16.62, 5-{8-[benzyl(methyl)amino]-6-(3-chlorophenyl)-7-[(trans-4-methylcyclohexyl)methyl]-7H-purin-2-yl}-1,3,4-oxadiazol-2(3H)-one], the IC50 under setting [1] came out at 136 nM.

`COC1(c2nc3nc(-c4noc(=O)[nH]4)nc(-c4cncc(Cl)c4)c3n2C[C@H]2CC[C@H](C)CC2)CCCCC1` [Example 23.75, 3-{6-(5-chloropyridin-3-yl)-8-(1-methoxycyclohexyl)-7-[(trans-4-methylcyclohexyl)methyl] -7H-purin-2-yl}-1,2,4-oxadiazol-5(4H)-one]: the IC50 (Table 23) stood at 30.7 nM.

On to `C[C@@H](Nc1nc(-c2noc(=O)[nH]2)nc2nc(NC(CO)c3ccccc3)n(C[C@H]3CC[C@H](C)CC3)c12)C1CCC1` (single isomer, unassigned) [Example 11.122], for which the IC50 (Table 11) came to 4.17 nM.

With `C[C@@H](Nc1nc(-c2noc(=O)[nH]2)nc2nc(C(F)c3ccccc3)n(C[C@H]3CC[C@H](C)CC3)c12)C1CCC1` (stereo partly drawn) [Example 22.66, 3-(6-{[(1R)-1-cyclobutylethyl]amino}-8-[fluoro(phenyl)methyl]-7-[(trans-4-methylcyclohexyl)methyl] -7H-purin-2-yl)-1,2,4-oxadiazol-5(4H)-one], the IC50 (Table 22) amounted to 7.12 nM.

As to `C[C@@H](Nc1nc(-c2noc(=O)[nH]2)nc2nc(N3CC(C)(O)C3)n(C[C@H]3CC[C@H](C)CC3)c12)C1CCC1` [Example 11.103, 3-(6-{[(1R)-1-cyclobutylethyl]amino}-8-(3-hydroxy-3-methylazetidin-1-yl)-7-[(trans-4-methylcyclohexyl)methyl]-7H-purin-2-yl)-1,2,4-oxadiazol-5(2H)-one], under “Table 11”, the IC50 amounted to 36.2 nM.

Regarding `C[C@@H](Nc1nc(-c2noc(=O)[nH]2)nc2nc(N3CCOC[C@H]3c3ccccc3)n(C[C@H]3CC[C@H](C)CC3)c12)C1CCC1` [Example 11.11, 3-(6-{[(1R)-1-cyclobutylethyl]amino}-7-[(trans-4-methylcyclohexyl)methyl]-8-[(3R)-3-phenylmorpholin-4-yl]-7H-purin-2-yl)-1,2,4-oxadiazol-5(4H)-one], the IC50 (Table 11) came out at 0.626 nM.

For the compound `C[C@@H](Nc1nc(C(=O)O)nc2nc(-c3cc(C4CC4)ccn3)n(C[C@H]3CC[C@H](C)CC3)c12)C1CCC1` [Example 15.17, 6-{[(1R)-1-cyclobutylethyl]amino}-8-(4-cyclopropylpyridin-2-yl)-7-[(trans-4-methylcyclohexyl)methyl]-7H-purine-2-carboxylic acid], the IC50 under setting [1] came out at 2.09 nM.

On to `C[C@@H](Nc1nc(C(=O)O)nc2nc(N3CCCC(c4ccccc4)C3)n(Cc3ccc(C(F)(F)F)cc3)c12)C1CCC1` (stereo partly drawn) [Example 9.41, 6-{[(1R)-1-cyclobutylethyl]amino}-8-(3-phenylpiperidin-1-yl)-7-[4-(trifluoromethyl)benzyl]-7H-purine-2-carboxylic acid], for which the IC50 (Table 9) came to 27.3 nM.

`CN(C)C(=O)[C@@H]1CCCN1c1nc2nc(-c3noc(=O)[nH]3)nc(-c3cccc(Cl)c3)c2n1C[C@H]1CC[C@H](C)CC1` [Example 16.148, 1-[6-(3-chlorophenyl)-7-[(trans-4-methylcyclohexyl)methyl]-2-(5-oxo-4,5-dihydro-1,2,4-oxadiazol-3-yl)-7H-purin-8-yl]-N,N-dimethyl-L-prolinamide]: the concentration for half-maximal inhibition (IC50) under setting [1] was 15.1 nM.

As for `C[C@@H](Nc1nc(-c2noc(=O)[nH]2)nc2nc(-n3ccnc3)n(C[C@H]3CC[C@H](C)CC3)c12)C1CCC1` [Example 11.57, 3-(6-{[(1R)-1-cyclobutylethyl]amino}-8-(1H-imidazol-1-yl)-7-[(trans-4-methylcyclohexyl)methyl]-7H-purin-2-yl)-1,2,4-oxadiazol-5(4H)-one], where the note is “Table 11”, the IC50 worked out at 16.4 nM.

As for `CSC1(C(=O)O)CCN(c2nc(N[C@H](C)C3CCC3)c3c(n2)nc(N2CCOC[C@H]2c2ccccc2)n3C[C@H]2CC[C@H](C)CC2)C1` (stereo partly drawn) [Example 13.10, 1-(6-{[(1R)-1-cyclobutylethyl]amino}-7-[(trans-4-methylcyclohexyl)methyl]-8-[(3R)-3-phenylmorpholin-4-yl]-7H-purin-2-yl)-3-(methylsulfanyl)pyrrol idine-3-carboxylic acid], under setting [1], the IC50 is 248 nM.

In the case of `C[C@@H](Nc1nc(S(C)(=O)=O)nc2nc(N3CCCCC3c3ccccc3)n(C[C@H]3CC[C@H](C)CC3)c12)C1CCC1` (single isomer, unassigned) [Example 14.9], the inhibition at 1 µM (read-out: % inh. at 1000 nM, at 1000 nM compound) came to 46%.

Regarding `CC(C)c1ccnc(-c2nc3nc(C(=O)O)nc(N[C@H](C)C4CCC4)c3n2C[C@H]2CC[C@H](C(F)(F)F)CC2)c1` [Example 18.1, 6-(((R)-1-cyclobutylethyl)amino)-8-(4-isopropylpyridin-2-yl)-7-((trans-4-(trifluoromethyl)cyclohexyl)methyl)-7H-purine-2-carboxylic acid], the IC50 (Table 18) stood at 3.46 nM.

For the compound `C[C@H]1CC[C@H](Cn2c(N3CCOC[C@H]3c3ccccc3)nc3nc(-c4noc(=O)[nH]4)nc(-c4cccc(Cl)c4F)c32)CC1` [Example 16.23, 3-{6-(3-chloro-2-fluorophenyl)-7-[(trans-4-methylcyclohexyl)methyl]-8-[(3R)-3-phenylmorpholin-4-yl]-7H-purin-2-yl}-1,2,4-oxadiazol-5(4H)-one], the IC50 under setting [1] was 1.44 nM.

On to `C[C@@H](Nc1nc2nc(C(=O)O)nc(N[C@H](C)C3CCC3)c2n1Cc1ccc(C(F)(F)F)cc1)c1ccccc1` [Example 9.17], for which, where the note is “Table 9”, the IC50 amounted to 15.8 nM.

On to `COCC1CCCCN1c1nc2nc(-c3noc(=O)[nH]3)nc(N[C@H](C)C3CCC3)c2n1Cc1ccc(C(F)(F)F)cc1` (stereo partly drawn) [Example 9.111, 3-(6-{[(1R)-1-cyclobutylethyl]amino}-8-[2-(methoxymethyl)piperidin-1-yl]-7-[4-(trifluoromethyl)benzyl]-7H-purin-2-yl)-1,2,4-oxadiazol-5(4H)-one], for which the IC50 (Table 9) came out at 8.78 nM.

For `Cc1cncc(-c2nc(-c3noc(=O)[nH]3)nc3nc(N4CCOC[C@H]4c4ccccc4)n(C[C@H]4CC[C@H](C)CC4)c23)c1` [Example 16.115, 3-{7-[(trans-4-methylcyclohexyl)methyl]-6-(5-methylpyridin-3-yl)-8-[(3R)-3-phenylmorpholin-4-yl]-7H-purin-2-yl}-1,2,4-oxadiazol-5(4H)-one], the IC50 under setting [1] amounted to 3.92 nM.

Values taken from patent EP2951180B1, “2,6,7,8 SUBSTITUTED PURINES AS HDM2 INHIBITORS” (Merck Sharp & Dohme Corp., priority 2013, dated 2014).
